From US10800792B2, “Inhibitors of Bruton's tyrosine kinase and method of their use” (JANSSEN PHARMACEUTICA NV, priority 2015, dated 2020)

Biological target: unphosphorylated-BTK kinase domain (UP-BTK), GST-tagged human BTK (389-659aa) (Homo sapiens (Human), UniProt Q06187)
Assay: BTK kinase Lanthascreen binding assay
Conditions: pIC50 = negative log of the IC50 in molar; 60 minutes incubation, 50 nM Tracer 236
Summary of the method: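 Lanthascreen competition binding; test compound vs fluorescent tracer on unphosphorylated BTK. Output: pIC50 (−log IC50, M).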

unphosphorylated-BTK kinase domain (UP-BTK), GST-tagged human BTK (389-659aa), sequence (Q06187 389-659): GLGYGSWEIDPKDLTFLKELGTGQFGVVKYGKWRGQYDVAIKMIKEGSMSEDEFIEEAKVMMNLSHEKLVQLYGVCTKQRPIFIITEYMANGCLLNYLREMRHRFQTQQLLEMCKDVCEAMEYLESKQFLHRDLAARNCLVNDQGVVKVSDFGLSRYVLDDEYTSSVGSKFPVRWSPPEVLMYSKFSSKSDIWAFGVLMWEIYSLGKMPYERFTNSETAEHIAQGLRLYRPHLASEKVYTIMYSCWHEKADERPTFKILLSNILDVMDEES

Row | SMILES | BTK_I_binding pIC50
1 | Cc1cc(Oc2ccccc2)ccc1N1C(=O)Nc2c(C(=O)N[C@@H]3CCCN(C(=O)[C@@H]4CCN(C)C4)C3)sc3nccc1c23 [Example 145, 5-(2-Methyl-4-phenoxyphenyl)-N—((R)-1-((R)-1-methylpyrrolidine-3-carbonyl)piperidin-3-yl)-4-oxo-4,5-dihydro-3H-1-thia-3,5,8-triazaacenaphthylene-2-carboxamide] | 7.0
2 | Cc1cc(Oc2ccccc2)ccc1N1C(=O)Nc2c(C(=O)N[C@@H]3CCCN(C(=O)CCS(C)(=O)=O)C3)sc3nccc1c23 [Example 146, (R)-5-(2-Methyl-4-phenoxyphenyl)-N-(1-(3-(methylsulfonyl)propanoyl)piperidin-3-yl)-4-oxo-4,5-dihydro-3H-1-thia-3,5,8-triazaacenaphthylene-2-carboxamide] | 7.4
3 | Cc1ccccc1Oc1ccc(N2C(=O)Nc3c(C(=O)N[C@@H]4CCCN(C)C4)sc4nccc2c34)c(C)c1 [Example 148, (R)-5-(2-Methyl-4-(o-tolyloxy)phenyl)-N-(1-methylpiperidin-3-yl)-4-oxo-4,5-dihydro-3H-1-thia-3,5,8-triazaacenaphthylene-2-carboxamide] | 6.9
4 | Cc1cc(Oc2ccccc2)ccc1N1C(=O)Nc2c(C(=O)N[C@@H]3CCN(C4CC4)C3)sc3nccc1c23 [Example 149, (R)—N-(1-Cyclopropylpyrrolidin-3-yl)-5-(2-methyl-4-phenoxyphenyl)-4-oxo-4,5-dihydro-3H-1-thia-3,5,8-triazaacenaphthylene-2-carboxamide] | 6.8
5 | Cc1cc(Oc2ccccc2)ccc1N1C(=O)Nc2c(C(=O)N[C@@H]3CCCN(C(=O)/C(C#N)=C/C(C)(C)N4CCCCC4)C3)sc3nccc1c23 [Example 150, (R,E)-N-(1-(2-Cyano-4-methyl-4-(piperidin-1-yl)pent-2-enoyl)piperidin-3-yl)-5-(2-methyl-4-phenoxyphenyl)-4-oxo-4,5-dihydro-3H-1-thia-3,5,8-triazaacenaphthylene-2-carboxamide] | 6.9
6 | Cc1cc(Oc2ccccc2)ccc1N1C(=O)Nc2c(C(=O)N[C@@H]3CCCN(C(=O)CN)C3)sc3nccc1c23 [Example 151, (R)—N-(1-(2-Aminoacetyl)piperidin-3-yl)-5-(2-methyl-4-phenoxyphenyl)-4-oxo-4,5-dihydro-3H-1-thia-3,5,8-triazaacenaphthylene-2-carboxamide] | 7.2
7 | Cc1cc(Oc2ccccc2)ccc1N1C(=O)Nc2c(C(=O)N[C@@H]3CCCN(C(=O)/C(C#N)=C/C(C)(C)NC4CC4)C3)sc3nccc1c23 [Example 152, (R,E)-N-(1-(2-Cyano-4-(cyclopropylamino)-4-methylpent-2-enoyl)piperidin-3-yl)-5-(2-methyl-4-phenoxyphenyl)-4-oxo-4,5-dihydro-3H-1-thia-3,5,8-triazaacenaphthylene-2-carboxamide] | 7.3
8 | Cc1cc(Oc2ccccc2)ccc1N1C(=O)Nc2c(C(=O)N[C@H]3CNC[C@H]3F)sc3nccc1c23 [Example 154, N-((3S,4R)-4-Fluoropyrrolidin-3-yl)-5-(2-methyl-4-phenoxyphenyl)-4-oxo-4,5-dihydro-3H-1-thia-3,5,8-triazaacenaphthylene-2-carboxamide] | 7.2
9 | COC(C)CC(=O)N1CCC[C@@H](NC(=O)c2sc3nccc4c3c2NC(=O)N4c2ccc(Oc3ccccc3)cc2C)C1 (stereo partly drawn) [Example 155, N-((3R)-1-(3-Methoxybutanoyl)piperidin-3-yl)-5-(2-methyl-4-phenoxyphenyl)-4-oxo-4,5-dihydro-3H-1-thia-3,5,8-triazaacenaphthylene-2-carboxamide] | 7.0
10 | COC[C@H](C)C(=O)N1CCC[C@@H](NC(=O)c2sc3nccc4c3c2NC(=O)N4c2ccc(Oc3ccccc3)cc2C)C1 [Example 156, N—((R)-1-((S)-3-Methoxy-2-methylpropanoyl)piperidin-3-yl)-5-(2-methyl-4-phenoxyphenyl)-4-oxo-4,5-dihydro-3H-1-thia-3,5,8-triazaacenaphthylene-2-carboxamide] | 7.1
11 | CCOc1ccccc1Oc1ccc(N2C(=O)Nc3c(C(=O)N[C@@H]4CCCN(C)C4)sc4nccc2c34)c(C)c1 [Example 157, (R)-5-(4-(2-Ethoxyphenoxy)-2-methylphenyl)-N-(1-methylpiperidin-3-yl)-4-oxo-4,5-dihydro-3H-1-thia-3,5,8-triazaacenaphthylene-2-carboxamide] | 6.6
12 | COCC(C)C(=O)N1CCC[C@@H](NC(=O)c2sc3nccc4c3c2NC(=O)N4c2ccc(Oc3ccccc3)cc2C)C1 (stereo partly drawn) [Example 158, N-((3R)-1-(3-Methoxy-2-methylpropanoyl)piperidin-3-yl)-5-(2-methyl-4-phenoxyphenyl)-4-oxo-4,5-dihydro-3H-1-thia-3,5,8-triazaacenaphthylene-2-carboxamide] | 7.1
13 | Cc1cc(Oc2ccccc2)ccc1N1C(=O)Nc2c(C(=O)N[C@@H]3CCNC3)sc3nccc1c23 [Example 159, (R)-5-(2-methyl-4-phenoxyphenyl)-4-oxo-N-(pyrrolidin-3-yl)-4,5-dihydro-3H-1-thia-3,5,8-triazaacenaphthylene-2-carboxamide] | 7.1
14 | Cc1cc(Oc2ccccc2)ccc1N1C(=O)Nc2c(C(=O)N[C@@H]3C[C@@H](F)CN(C)C3)sc3nccc1c23 [Example 160, N-((3R,5R)-5-Fluoro-1-methylpiperidin-3-yl)-5-(2-methyl-4-phenoxyphenyl)-4-oxo-4,5-dihydro-3H-1-thia-3,5,8-triazaacenaphthylene-2-carboxamide] | 6.6
15 | C#CC(=O)N1CCC[C@@H](NC(=O)c2sc3nccc4c3c2NC(=O)N4c2ccc(Oc3ccccc3)cc2C)C1 [Example 161, (R)-5-(2-Methyl-4-phenoxyphenyl)-4-oxo-N-(1-propioloylpiperidin-3-yl)-4,5-dihydro-3H-1-thia-3,5,8-triazaacenaphthylene-2-carboxamide] | 7.7
16 | Cc1cc(Oc2ccccc2)ccc1N1C(=O)Nc2c(C(=O)NC3CC4CCN3CC4)sc3nccc1c23 (centres unmarked) [Example 171, 5-(2-Methyl-4-phenoxyphenyl)-4-oxo-N-(quinuclidin-2-yl)-4,5-dihydro-3H-1-thia-3,5,8-triazaacenaphthylene-2-carboxamide] | 7.0

Continued, values first:

Row | BTK_I_binding pIC50 | SMILES
17 | 6.8 | Cc1cc(Oc2ccccc2)ccc1N1C(=O)Nc2c(C(=O)NC3CCC(=O)N(C)C3)sc3nccc1c23 (centres unmarked) [Example 162, 5-(2-Methyl-4-phenoxyphenyl)-N-(1-methyl-6-oxopiperidin-3-yl)-4-oxo-4,5-dihydro-3H-1-thia-3,5,8-triazaacenaphthylene-2-carboxamide]
18 | 7.2 | Cc1cc(Oc2ccccc2)ccc1N1C(=O)Nc2c(C(=O)N[C@@H]3CCCN(C(=O)CCN)C3)sc3nccc1c23 [Example 163, (R)—N-(1-(3-Aminopropanoyl)piperidin-3-yl)-5-(2-methyl-4-phenoxyphenyl)-4-oxo-4,5-dihydro-3H-1-thia-3,5,8-triazaacenaphthylene-2-carboxamide]
19 | 6.8 | Cc1cc(Oc2ccccc2)ccc1N1C(=O)Nc2c(C(=O)N[C@@H]3C[C@H](F)CN(C)C3)sc3nccc1c23 [Example 164, N-((3R,5S)-5-Fluoro-1-methylpiperidin-3-yl)-5-(2-methyl-4-phenoxyphenyl)-4-oxo-4,5-dihydro-3H-1-thia-3,5,8-triazaacenaphthylene-2-carboxamide]
20 | 6.6 | Cc1cc(Oc2ccccc2)ccc1N1C(=O)Nc2c(C(=O)NC3CCN(C)CC3C)sc3nccc1c23 (centres unmarked) [Example 165, N-(1,3-Dimethylpiperidin-4-yl)-5-(2-methyl-4-phenoxyphenyl)-4-oxo-4,5-dihydro-3H-1-thia-3,5,8-triazaacenaphthylene-2-carboxamide]
21 | 6.9 | Cc1cc(Oc2ccccc2)ccc1N1C(=O)Nc2c(C(=O)NC3CCNC(=O)C3)sc3nccc1c23 (centres unmarked) [Example 166, 5-(2-Methyl-4-phenoxyphenyl)-4-oxo-N-(2-oxopiperidin-4-yl)-4,5-dihydro-3H-1-thia-3,5,8-triazaacenaphthylene-2-carboxamide]
22 | 7.0 | Cc1cc(Oc2ccccc2)ccc1N1C(=O)Nc2c(C(=O)N[C@H]3CNC[C@@H](F)C3)sc3nccc1c23 [Example 167, N-((3R,5S)-5-fluoropiperidin-3-yl)-5-(2-methyl-4-phenoxyphenyl)-4-oxo-4,5-dihydro-3H-1-thia-3,5,8-triazaacenaphthylene-2-carboxamide]
23 | 6.8 | Cc1cc(Oc2ccccc2)ccc1N1C(=O)Nc2c(C(=O)N[C@@H]3C[C@@H](O)CN(C)C3)sc3nccc1c23 [Example 168, N-((3R,5R)-5-Hydroxy-1-methylpiperidin-3-yl)-5-(2-methyl-4-phenoxyphenyl)-4-oxo-4,5-dihydro-3H-1-thia-3,5,8-triazaacenaphthylene-2-carboxamide]
24 | 7.0 | CCc1ccccc1Oc1ccc(N2C(=O)Nc3c(C(=O)N[C@@H]4CCCN(C)C4)sc4nccc2c34)c(C)c1 [Example 170, (R)-5-(4-(2-Ethylphenoxy)-2-methylphenyl)-N-(1-methylpiperidin-3-yl)-4-oxo-4,5-dihydro-3H-1-thia-3,5,8-triazaacenaphthylene-2-carboxamide]
25 | 6.7 | Cc1cc(Oc2ccccc2)ccc1N1C(=O)Nc2c(C(=O)NC3CCNCC3C)sc3nccc1c23 (centres unmarked) [Example 172, 5-(2-Methyl-4-phenoxyphenyl)-N-(3-methylpiperidin-4-yl)-4-oxo-4,5-dihydro-3H-1-thia-3,5,8-triazaacenaphthylene-2-carboxamide]
26 | 6.6 | Cc1cc(Oc2ccccc2)ccc1N1C(=O)Nc2c(C(=O)N[C@H]3CNCC(F)(F)C3)sc3nccc1c23 [Example 174, (R)—N-(5,5-Difluoropiperidin-3-yl)-5-(2-methyl-4-phenoxyphenyl)-4-oxo-4,5-dihydro-3H-1-thia-3,5,8-triazaacenaphthylene-2-carboxamide]
